Measured values taken from patent US9890185B2, “Urea derivatives useful as kinase inhibitors” (Respivert Limited, priority 2013, dated 2018).

Experiments:
PBMCs [1] = test: IL-2 release in CD3/CD28 stimulated PBMC cells (assay c); type: cell-based; conditions: Homo sapiens, read-out: IC50 Values for Inhibition of Cytokine Release, PBMCs IL-2
Procedure: (§1) PBMCs from healthy subjects are separated from whole blood using a density gradient (Lymphoprep, Axis-Shield Healthcare). Cells are added to a 96 well plate pre-coated with a mixture of CD3/CD28 monoclonal antibodies (0.3 μg/mL eBioscience and 3 μg/mL BD Pharmingen respectively). Compound at the desired concentration is then added to the wells and the plate left for 3 days under normal tissue culture conditions. Supernatants are harvested and IL-2 and IFN gamma release determined by Sandwich ELISA (Duo-set, R&D System). The IC50 is determined from the dose response curve.

PBMCs [2] = test: LPS-induced IL-8 release in PBMC cells (assay b); type: cell-based, human; conditions: Homo sapiens, PBMC; LPS-stimulated PBMCs; read-out: IC50 Values for Inhibition of Cytokine Release, PBMCs IL-8
Procedure, shortened: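 Human PBMCs from healthy donors, isolated by density gradient, were pretreated with compound for 2 h and then stimulated with 1 ng/mL LPS (E. coli 0111:B4) for 24 h at 37° C, 5% CO2. Supernatant IL-8 and TNFα were measured by sandwich ELISA, and IC50 was taken from the dose-response curve.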

GSK 3α = GSK 3α (Homo sapiens (Human), UniProt P49840); test: GSK 3α enzyme inhibition (FRET, Z-LYTE, Method 2); type: biochemical; conditions: read-out: IC50 Values for Enzyme Inhibition, GSK3α
Procedure, shortened: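 Recombinant human GSK3α was preincubated with compound (stocks 4, 0.4, 0.04 or 0.004 μg/mL) at RT, 2 hr for Method 1 and 105 min for Method 2. FRET peptide (8 μM stock) and ATP (40 μM stock) were added for 1 hr, then protease development for 1 hr. IC50 was taken from concentration–response curves.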

d-U937 cells = test: Accumulation of β catenin in d-U937 cells (assay m); type: cell-based, human; conditions: percentage relative to Reference Compound at 1 μg/mL
Procedure: U937 cells, a human monocytic cell line, are differentiated into macrophage-type cells by incubation with PMA; (100 ng/mL) for between 48 to 72 hr. The cells are then incubated with either final concentrations of test compound or vehicle for 18 hr. The induction of β-catenin by the test compounds is stopped by replacing the media with 4% formaldehyde solution. Endogenous peroxide activity is neutralised by incubating with quenching buffer (100 μL, 0.1% sodium azide, 1% H2O2 in PBS with 0.05% Tween-20) for 20 min. The cells are washed with washing buffer (200 μL; PBS containing 0.05% Tween-20) and incubated with blocking solution (200 μL; 5% milk in PBS) for 1 hr, re-washed with washing buffer (200 μL) and then incubated overnight with anti-β-catenin antibody solution (50 μL) in 1% BSA/PBS (BD, Oxford, UK).
After washing with washing buffer (3×200 μL; PBS containing 0.05% Tween-20), cells are incubated with an HRP-conjugated secondary antibody solution (100 μL) in 1% BSA/PBS (Dako, Cambridge, UK) and the resultant signal is determined colourimetrically (OD: 450 nm with a reference wavelength of 655 nm) using TMB substrate (50 μL; R&D Systems, Abingdon, UK). This reaction is stopped by addition of 1N H2SO4 solution (50 μL). Cells are then washed with washing buffer and 2% crystal violet solution (50 μL) is applied for 30 min. After washing with washing buffer (3×200 μL), 1% SDS (100 μL) is added to each well and the plates are shaken lightly for 1 hr prior to measuring the absorbance at 595 nm (Varioskan® Flash, Thermo-Fisher Scientific).
The measured OD450-655 readings are corrected for cell number by dividing the OD450-655 by the OD595 readings.

Syk = Syk (Homo sapiens (Human), UniProt P43405); test: Syk enzyme inhibition (FRET, Z-LYTE); type: biochemical
Procedure: (§2) The enzyme inhibitory activities of compounds disclosed herein are determined by FRET using synthetic peptides labelled with both donor and acceptor fluorophores (Z-LYTE, Invitrogen Ltd., Paisley, UK).
(§3) The inhibitory activities of compounds of the invention against c-Src and Syk enzymes (Invitrogen), are evaluated in a similar fashion to that described hereinabove. The relevant enzyme (3000 ng/mL or 2000 ng/mL respectively, 2.5 μL) is incubated with the test compound (either 4 μg/mL, 0.4 μg/mL, 0.04 μg/mL, or 0.004 μg/mL, 2.5 μL each) for 2 hr at RT. The FRET peptides (8 μM, 2.5 μL), and appropriate ATP solutions (2.5 μL, 800 μM for c-Src, and 60 μM ATP for Syk) are then added to the enzymes/compound mixtures and incubated for 1 hr. Development reagent (protease, 5 μL) is added for 1 hr prior to detection in a fluorescence microplate reader (Varioskan® Flash, ThermoFisher Scientific).
(§4) In all cases, the site-specific protease cleaves non-phosphorylated peptide only and eliminates the FRET signal. Phosphorylation levels of each reaction are calculated using the ratio of coumarin emission (donor) over fluorescein emission (acceptor), for which high ratios indicate high phosphorylation and low ratios indicate low phosphorylation levels. The percentage inhibition of each reaction is calculated relative to non-inhibited control and the 50% inhibitory concentration (IC50 value) is then calculated from the concentration-response curve.

c-Src = c-Src (Homo sapiens (Human), UniProt P12931); test: c-Src enzyme inhibition (FRET, Z-LYTE); type: biochemical
Procedure: as §2, §3, §4

[3] = biological target: p38 MAPKα isoform (MAPK14) (Homo sapiens (Human), UniProt Q16539); test: p38 MAPKα enzyme inhibition (FRET, Z-LYTE, Method 2); type: biochemical
Procedure: as §2
The following two assay variants can be used for determination of p38 MAPKα inhibition.
The inhibitory activities of test compounds against the p38 MAPKα isoform (MAPK14: Invitrogen), are evaluated indirectly by determining the level of activation/phosphorylation of the down-stream molecule, MAPKAP-K2. The p38 MAPKα protein (80 ng/mL, 2.5 μL) is mixed with the test compound (2.5 μL of either 4 μg/mL, 0.4 μg/mL, 0.04 μg/mL or 0.004 μg/mL) for 2 hr at RT. […] The mixture is incubated for 1 hr at RT. Development reagent (protease, 5 μL) is added for 1 hr prior to detection in a fluorescence microplate reader (Varioskan® Flash, ThermoFisher Scientific).
This method follows the same steps as Method 1 above, but utilises a higher concentration of the p38 MAPKα protein (2.5 μL of 200 ng/mL protein instead of 2.5 μL of 80 ng/mL protein) for mixing with the test compound.
as §4

PBMCs [4] = test: IFN gamma release in CD3/CD28 stimulated PBMC cells (assay c); type: cell-based; conditions: Homo sapiens, read-out: IC50 Values for Inhibition of Cytokine Release, PBMCs IFNγ
Procedure: as §1

PBMCs [5] = test: Cell mitosis assay in PBMCs (assay g); type: cell-based; conditions: Homo sapiens, PBMC, test compound 5 μg/mL
Procedure: Peripheral blood mononucleocytes (PBMCs) from healthy subjects are separated from whole blood (Quintiles, London, UK) using a density gradient (Histopaque®-1077, Sigma-Aldrich, Poole, UK). The PBMCs (3 million cells per sample) are subsequently treated with 2% PHA (phytohaemagglutinin, Sigma-Aldrich, Poole, UK) for 48 hr, followed by a 20 hr exposure to varying concentrations of test compounds. At 2 hr before collection, PBMCs are treated with demecolcine (0.1 μg/mL; Invitrogen, Paisley, UK) to arrest cells in metaphase. To observe mitotic cells, PBMCs are permeabilised and fixed by adding Intraprep (50 μL; Beckman Coulter, France), and stained with anti-phospho-histone 3 (0.26 ng/L; #9701; Cell Signalling, Danvers, Mass.) and propidium iodide (1 mg/mL; Sigma-Aldrich, Poole, UK) as previously described (Muehlbauer P. A. and Schuler M. J., Mutation Research, 2003, 537:117-130). Fluorescence is observed using an ATTUNE flow cytometer (Invitrogen, Paisley, UK), gating for lymphocytes. The percentage inhibition of mitosis is calculated for each treatment relative to vehicle (0.5% DMSO) treatment.

Sequence of c-Src (P12931 whole entry, looked up): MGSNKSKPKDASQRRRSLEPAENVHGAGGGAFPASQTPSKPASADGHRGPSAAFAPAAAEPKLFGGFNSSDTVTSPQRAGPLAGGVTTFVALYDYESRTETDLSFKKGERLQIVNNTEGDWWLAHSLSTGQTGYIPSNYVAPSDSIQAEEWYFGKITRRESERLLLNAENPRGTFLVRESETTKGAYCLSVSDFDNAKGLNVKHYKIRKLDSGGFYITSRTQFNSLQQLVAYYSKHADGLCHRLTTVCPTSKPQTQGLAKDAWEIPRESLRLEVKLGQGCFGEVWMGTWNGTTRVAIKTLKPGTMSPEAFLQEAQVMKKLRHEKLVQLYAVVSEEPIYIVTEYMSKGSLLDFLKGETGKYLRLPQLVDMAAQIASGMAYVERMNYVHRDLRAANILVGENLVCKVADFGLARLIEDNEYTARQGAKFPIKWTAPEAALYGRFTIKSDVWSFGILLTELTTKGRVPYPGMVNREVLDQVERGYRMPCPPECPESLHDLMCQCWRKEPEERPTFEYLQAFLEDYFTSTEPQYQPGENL
Sequence of p38 MAPKα isoform (MAPK14) (Q16539 whole entry, canonical isoform): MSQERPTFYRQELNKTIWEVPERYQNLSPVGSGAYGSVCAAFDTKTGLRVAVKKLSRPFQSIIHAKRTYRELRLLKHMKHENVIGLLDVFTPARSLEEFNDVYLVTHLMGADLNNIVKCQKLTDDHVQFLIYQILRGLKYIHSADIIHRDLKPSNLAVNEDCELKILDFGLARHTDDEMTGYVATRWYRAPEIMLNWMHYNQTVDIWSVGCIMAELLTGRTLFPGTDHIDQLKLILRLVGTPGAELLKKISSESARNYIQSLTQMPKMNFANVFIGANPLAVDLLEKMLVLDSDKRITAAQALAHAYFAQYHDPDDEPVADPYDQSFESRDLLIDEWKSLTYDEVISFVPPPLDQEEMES
Sequence of GSK 3α (P49840 whole entry): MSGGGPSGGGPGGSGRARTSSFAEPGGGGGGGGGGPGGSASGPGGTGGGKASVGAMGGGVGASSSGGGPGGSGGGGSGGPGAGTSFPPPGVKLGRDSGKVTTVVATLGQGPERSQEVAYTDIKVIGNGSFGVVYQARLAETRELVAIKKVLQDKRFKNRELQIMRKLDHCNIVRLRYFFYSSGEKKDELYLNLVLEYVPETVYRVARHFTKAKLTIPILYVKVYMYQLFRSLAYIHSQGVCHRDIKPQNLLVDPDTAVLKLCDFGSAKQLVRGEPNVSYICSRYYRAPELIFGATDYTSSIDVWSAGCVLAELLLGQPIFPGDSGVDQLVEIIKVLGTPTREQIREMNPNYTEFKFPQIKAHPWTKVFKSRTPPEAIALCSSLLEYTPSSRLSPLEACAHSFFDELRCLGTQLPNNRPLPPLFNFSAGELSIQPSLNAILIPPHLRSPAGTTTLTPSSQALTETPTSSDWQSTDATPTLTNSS

Row | IC50 (GSK 3α) [nM] | IC50 (Syk) [nM] | IC50 (c-Src) [nM] | IC50 [3] [nM] | Structure (SMILES) | IC50 (PBMCs [1]) [nM] | IC50 (PBMCs [2]) [nM] | % β-catenin induction (d-U937 cells; test compound 1 μg/mL) [%] | % β-catenin induction (d-U937 cells; test compound 5 μg/mL) [%] | % β-catenin induction (d-U937 cells; test compound 10 μg/mL) [%] | IC50 (PBMCs [4]) [nM] | inhibition at 5 µg/mL (PBMCs [5]) [%]
1 | 2890 | 551 | 120 | 360 | COc1c(NC(=O)Nc2ccc(Oc3ccnc(Nc4ccccc4)c3)c3ccccc23)cc(C(C)(C)C)cc1OCP(C)(C)=O [15(e), 1-(5-(tert-butyl)-3-((dimethylphosphoryl)methoxy)-2-methoxyphenyl)-3-(4-((2-(phenylamino)pyridin-4-yl)oxy)naphthalen-1-yl)urea] | 25.6 | 4.7 | 2.0 | 20.5 | 32.5 | 60.4 | –
2 | > 15300 | > 1520 | 363 | – | COc1c(CC(N)=O)cc(C(C)(C)C)cc1NC(=O)Nc1ccc(Oc2ccnc(Nc3cccc(OC(F)F)c3)c2)c2ccccc12 [38(s), 2-(5-(tert-Butyl)-3-(3-(4-((2-((3-(difluoromethoxy)phenyl)amino)pyridin-4-yl)oxy)naphthalen-1-yl)ureido)-2-methoxyphenyl)acetamide] | 190 | 5.3 | – | – | – | 26.7 | –
3 | 1150 | – | – | – | COc1cc(Nc2cc(Oc3ccc(NC(=O)Nc4cc(C(C)(C)C)cc(CP(C)(C)=O)c4OC)c4ccccc34)ccn2)cc(C(=O)NCCN2CCOCC2)c1 [38(v), 3-((4-((4-(3-(5-(tert-Butyl)-3-((dimethylphosphoryl)methyl)-2-methoxyphenyl)ureido)-naphthalen-1-yl)oxy)pyridin-2-yl)amino)-5-methoxy-N-(2-morpholinoethyl)benzamide] | 84.5 | 1.7 | – | – | – | 8.1 | –
4 | 1580 | 228 | 43 | 56 | COc1cncc(Nc2cc(Oc3ccc(NC(=O)Nc4cc(C(C)(C)C)cc(P(C)(C)=O)c4OC)c4ccccc34)ccn2)c1 [Example 34, 1-(5-(tert-Butyl)-3-(dimethylphosphoryl)-2-methoxyphenyl)-3-(4-((2-((5-methoxypyridin-3-yl)amino)pyridin-4-yl)oxy)naphthalen-1-yl)urea] | – | 1.2 | 2.0 | 28.5 | 23.0 | – | 81.1

The next lines start with the compound.

Row | Structure (SMILES) | IC50 (GSK 3α) [nM] | IC50 (Syk) [nM] | IC50 (c-Src) [nM] | IC50 [3] [nM] | IC50 (PBMCs [1]) [nM] | IC50 (PBMCs [2]) [nM] | % β-catenin induction (d-U937 cells; test compound 1 μg/mL) [%] | % β-catenin induction (d-U937 cells; test compound 5 μg/mL) [%] | % β-catenin induction (d-U937 cells; test compound 10 μg/mL) [%] | IC50 (PBMCs [4]) [nM] | inhibition at 5 µg/mL (PBMCs [5]) [%]
5 | COc1c(NC(=O)Nc2ccc(Oc3ccnc(Nc4cnccn4)n3)c3ccccc23)cc(C(C)(C)C)cc1P(C)(C)=O [15(q), 1-(5-(tert-butyl)-3-(dimethylphosphoryl)-2-methoxyphenyl)-3-(4-((2-(pyrazin-2-ylamino)pyrimidin-4-yl)oxy)naphthalen-1-yl)urea] | 3480 | > 1640 | 211 | – | – | 6.2 | 5.0 | 9.5 | 2.5 | 1640 | 12.9
6 | COCCOCCOCCOc1cc(Nc2nccc(Oc3ccc(NC(=O)Nc4cc(C(C)(C)C)cc(P(C)(C)=O)c4OC)c4ccccc34)n2)cc(OC)c1 [Example 1, 1-(5-(tert-Butyl)-3-(dimethylphosphoryl)-2-methoxyphenyl)-3-(4-((2-((3-methoxy-5-(2-(2-(2-methoxyethoxy)ethoxy)ethoxy)phenyl)amino)pyrimidin-4-yl)oxy)naphthalen-1-yl)urea] | 330 | 30 | 9 | 34 | 61.2 | 1.1 | – | – | – | 3.8 | –
7 | COc1c(NC(=O)Nc2ccc(Oc3ccnc(Nc4ccn(C)n4)c3)c3ccccc23)cc(C(C)(C)C)cc1P(C)(C)=O [Example 36, 1-(5-(tert-Butyl)-3-(dimethylphosphoryl)-2-methoxyphenyl)-3-(4-((2-((1-methyl-1H-pyrazol-3-yl)amino)pyridin-4-yl)oxy)naphthalen-1-yl)urea] | 1070 | 54 | 27 | 31 | – | 1.1 | 17.5 | 84.5 | 27.5 | – | 86.6
8 | COc1cc(Nc2cc(Oc3ccc(NC(=O)Nc4cc(C(C)(C)C)cc(S(C)(=O)=O)c4OC)c4ccccc34)ccn2)ccc1C(=O)O [Example 80, 4-((4-((4-(3-(5-(tert-Butyl)-2-methoxy-3-(methylsulfonyl)phenyl)ureido)naphthalen-1-yl)oxy)pyridin-2-yl)amino)-2-methoxybenzoic acid] | – | – | – | – | 415 | 4.5 | – | – | – | 6.6 | –
